The subject of data set [1] is hiPSC-ECs. The data set can be described thus: oxidative stress and inflammation readouts in hiPSC-ECs. Format: cell-based, human. As to conditions: for expression of proinflammatory cytokines and chemokines / inflammation-related genes / TLR4 expression / expression of ROS-related genes NOX1 and iNOS / mRNA expression of antioxidant-related genes (SOD1, SOD2, CAT, GPX1): Δ9-THC alone; for expression of proinflammatory cytokines and chemokines / inflammation-related genes: genistein or AM6545 = reversal of the Δ9-THC-induced effect; for TLR4 expression / expression of ROS-related genes NOX1 and iNOS / mRNA expression of antioxidant-related genes (SOD1, SOD2, CAT, GPX1): genistein = with Δ9-THC.

Data set [2] concerns C57BL/6J mice. The data set can be described thus: neurobehavioral testing (Billy Martin tetrad). Format: in vivo, mouse.
For data set [3], the system named is C57BL/6J mice. As to the kind of experiment: 30-day C57BL/6J mouse model of Δ9-THC-induced endothelial dysfunction, oxidative stress and inflammation. The conditions noted are these: for endothelial function (wire myograph, thoracic aorta): 30 days, genistein = Δ9-THC plus genistein; for circulating levels of glutathione / plasma interleukins IL-6, IL-3 and IL-10: Δ9-THC alone; for circulating levels of glutathione: genistein = co-treatment; for plasma interleukins IL-6, IL-3 and IL-10: genistein = cotreatment. From the text: Seven-week-old male C57BL/6J mice were obtained from Jackson Laboratory (Bar Harbor, ME, USA). […] Organs were collected, weighed, and fixed with 4% paraformaldehyde (PFA). The thoracic aortas (TAs) were surgically dissected out and cleaned from the surrounding connective tissue for all groups. The TAs were transferred to ice-cold Krebs'-Henseleit solution and cut into segments of 2 mm. The artery segments were mounted in wire-myograph chambers for isometric tension recordings (DanishMyo Technology [DMT]).The chambers contained Krebs'-Henseleit solution. All chambers were aerated with 95% 02/5% CO2, and the temperature was kept constant at 37° C. to mimic physiological conditions. After a manual stabilization and normalization procedure, the PowerLab4/25-Chart7 acquisition systems (AD Instruments Ltd) was used to record force and convert it into tension. The TA segments were pre-constricted using either […] 5HT serotonin (5HT) or U46619. A cumulative application of acetylcholine ([…]) was performed, and the induced vascular dilatations were measured. Subsequently, concentration-response relationship curves were established for each group of 3 mice. Time-matched dimethylsulfoxide (DMSO) application was performed in a separate chamber as the control for all experiments.

For data set [4] the following is noted: Yang et al. 2012; cited from earlier work.
Another data set concerns Human subjects. The data set can be described thus: human study in subjects ingesting medicinal cannabinoids. Format: in vivo. The conditions noted are these: 1 or 5 mg/Kg/day versus placebo.
Data set [5] has as its target T1, CB1 (Homo sapiens, UniProt P21554). As to the kind of experiment: in vitro GTPase assay. Format: biochemical.
Data set [6] has as its target T1, CB1. As to conditions: reported as an agonist; cited from earlier work.
The target in data set [7] is T1, CB1. The data set can be described thus: CB1 radioligand binding assay.
A further data set concerns ApoE^−/− mice. As to the kind of experiment: ApoE−/− partial carotid artery ligation (PCAL) atherosclerosis model. The format is in vivo, mouse. As to conditions: for plaque area (Oil Red O), ligated carotid artery: 10 days high-fat diet, genistein = cotreatment with Δ9-THC; for CD68-positive area / F4/80-positive area, ligated carotid artery: genistein = co-treatment with Δ9-THC.

For data set [8] the following is noted: not told; cited from earlier work.
Data set [9] concerns LDL receptor knock-out mice (B6.129S7-Ldlr^tm1Her/J). The data set can be described thus: atherosclerosis in LDL receptor knock-out mice on high-fat diet. The format is in vivo, mouse. As to conditions: for serum lipid profiles or blood pressure: 12 weeks high-fat diet, genistein = cotreatment with Δ9-THC; for CD68-positive area in the aortic root (macrophage recruitment) / plaque size (Oil Red O; aortic root cross-sections and en face thoracic aorta): 12 weeks, genistein = co-treatment with Δ9-THC. Here is the method: After 12 weeks, the mice were euthanized, and the atherosclerotic lesion area was examined by cross-sections of the aortic root and an en face analysis of the thoracic aorta. […] Macrophage recruitment in the aortic root was analyzed using aortic plaque stained with an anti-CD68 antibody.

In the next data set the target is human CB2 (Homo sapiens, UniProt P34972). As to conditions: reported as an agonist; cited from earlier work.
Sequence of human CB2 (P34972 whole entry): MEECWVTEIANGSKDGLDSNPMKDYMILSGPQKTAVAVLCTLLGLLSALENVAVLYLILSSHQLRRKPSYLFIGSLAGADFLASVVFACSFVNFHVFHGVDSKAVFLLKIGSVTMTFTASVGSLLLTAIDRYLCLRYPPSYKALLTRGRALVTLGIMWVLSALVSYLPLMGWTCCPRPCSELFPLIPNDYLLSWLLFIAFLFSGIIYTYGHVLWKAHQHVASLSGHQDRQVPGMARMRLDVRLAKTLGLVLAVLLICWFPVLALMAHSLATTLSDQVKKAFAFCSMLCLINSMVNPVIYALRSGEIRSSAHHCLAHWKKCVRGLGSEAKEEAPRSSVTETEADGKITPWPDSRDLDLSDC
The subject of data set [10] is hiPSC-ECs. The data set can be described thus: monocyte adhesion to hiPSC-ECs. The conditions noted are these: Δ9-THC alone; genistein = with Δ9-THC. Format: cell-based, human.
The conditions of data set [11]: in vivo; cited from earlier work.
In data set [12] the target is G protein-coupled estrogen receptor (Homo sapiens, UniProt Q99527). The conditions noted are these: agonist; cited from earlier work.
Sequence of G protein-coupled estrogen receptor (Q99527 whole entry): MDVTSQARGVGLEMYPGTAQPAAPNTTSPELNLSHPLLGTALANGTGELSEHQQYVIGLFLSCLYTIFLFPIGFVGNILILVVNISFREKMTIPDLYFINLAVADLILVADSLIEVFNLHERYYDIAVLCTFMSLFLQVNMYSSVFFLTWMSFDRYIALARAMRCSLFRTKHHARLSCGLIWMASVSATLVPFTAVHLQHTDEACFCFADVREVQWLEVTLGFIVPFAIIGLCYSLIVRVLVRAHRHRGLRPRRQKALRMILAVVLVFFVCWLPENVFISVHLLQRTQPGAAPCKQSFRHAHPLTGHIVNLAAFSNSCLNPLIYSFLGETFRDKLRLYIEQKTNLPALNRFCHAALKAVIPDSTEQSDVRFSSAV
Data set [13] has as its system human endothelial cells (HUVECs and HCAECs). The data set can be described thus: cytotoxicity in human endothelial cells.
A further data set relates to human endothelial cells. The data set can be described thus: inflammation and antioxidant gene expression in human endothelial cells.
Data set [14] relates to hiPSC-ECs. As to the kind of experiment: cytotoxicity in hiPSC-ECs.
Data set [15] concerns human cardiac fibroblasts-ventricular (NHCF-V). The data set can be described thus: cytotoxicity in cardiac fibroblasts.
[16] abbreviates: Δ9-THC 20 mg/kg i.p., 60 min post-dosing.

The structures appear in SMILES notation. pIC50, pKi: −log10 of the molar value. Where two headings read alike, the source gives them in different places. A value given as a limit tells only on which side of the number the result lay.

The values below come from patent US20240307342A1, “Treatment of the adverse cardiovascular effects of cannabinoids” (GreenStone Biosciences, Inc., priority 2022, published 2024).

Usually pIC50 stands for the IC50 on a negative log10 scale, so that one unit is a factor of ten. The pKi is −log10 of the Ki, conventionally taken in molar units.

T1 sequence (P21554 whole entry): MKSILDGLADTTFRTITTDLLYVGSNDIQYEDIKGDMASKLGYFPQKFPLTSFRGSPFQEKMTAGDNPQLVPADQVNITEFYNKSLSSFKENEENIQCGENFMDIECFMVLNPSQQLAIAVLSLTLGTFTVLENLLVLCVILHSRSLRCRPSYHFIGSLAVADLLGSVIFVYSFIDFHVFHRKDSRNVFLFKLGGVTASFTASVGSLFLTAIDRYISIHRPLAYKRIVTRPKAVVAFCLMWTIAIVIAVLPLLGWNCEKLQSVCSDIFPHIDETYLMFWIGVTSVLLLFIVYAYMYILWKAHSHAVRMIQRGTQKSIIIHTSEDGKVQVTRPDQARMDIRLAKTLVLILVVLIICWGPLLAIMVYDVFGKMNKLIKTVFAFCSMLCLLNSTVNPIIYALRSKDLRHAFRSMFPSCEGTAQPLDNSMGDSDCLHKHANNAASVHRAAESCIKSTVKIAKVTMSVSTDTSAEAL

Consider `Cc1c(C(=O)NN2CCS(=O)(=O)CC2)nn(-c2ccc(Cl)cc2Cl)c1-c1ccc(C#CCCC#N)cc1` [AM6545], for which the “expression of proinflammatory cytokines and chemokines / inflammation-related genes” value in the data set with hiPSC-ECs [1] is “reversed”.
Take `O=c1c(-c2ccc(O)cc2)coc2cc(O)cc(O)c12` [genistein, 5,7-dihydroxy-3-(4-hydroxyphenyl)-4H-1-benzopyran-4-one]: in the data set with C57BL/6J mice [2] (genistein 50 mg/kg p.o. in co-treatment with Δ9-THC 20 mg/kg i.p.), the Δ9-THC neurobehavioral effects entry was “could not attenuate”. The tetrad effects entry with C57BL/6J mice [2] (genistein alone, 50 mg/kg p.o.) is reported as “did not affect tetrad effects”. Besides, in the data set with C57BL/6J mice [3], the “endothelial function (wire myograph, thoracic aorta)” value is “mitigated”; the “circulating levels of glutathione” value is “ameliorated”; the “plasma interleukins IL-6, IL-3 and IL-10” value was “significantly reduced”. In the data set with C57BL/6J mice [3] (with Δ9-THC), the “NF-κB phosphorylation and SOD expression in mouse serum” value is recorded as “attenuated”; the “mRNA expressions of inflammation induced by Δ9-THC in mouse thoracic artery tissues” value was “ameliorated”; the “oxidative stress-related gene expression” value is given as “rescued”. For the same compound, the “blood-brain barrier (BBB) penetration” value in data set [4] was “poor blood-brain barrier (BBB) penetration”. Besides, in the data set on Human subjects, the “incidence of adverse cardiovascular effects of cannabinoid ingestion” value was “dose-related lower incidence”. At CB1 [5], the “mode of action against CB1” value was “neutral antagonist”. At CB1 [6], the pIC50 is 6.82. Also, at CB1 [7], the pIC50 is 6.82. Also, in the data set on ApoE^−/− mice, the “plaque area (Oil Red O), ligated carotid artery” value is “ameliorated plaque size”; the CD68-positive area entry is on record as “reduced”; the “F4/80-positive area, ligated carotid artery” value is on record as “decreased”. In addition, in the data set with hiPSC-ECs [1] (genistein with Δ9-THC), the NF-κB phosphorylation entry is given as “attenuated”. Besides, in the data set on hiPSC-ECs [1], the TLR4 expression result is on record as “disrupted”; the “expression of ROS-related genes NOX1 and iNOS” value is reported as “salutatory effect”; the “mRNA expression of antioxidant-related genes (SOD1, SOD2, CAT, GPX1)” value is reported as “ameliorated”; the “expression of proinflammatory cytokines and chemokines / inflammation-related genes” value was “reversed”. In addition, the cell wall permeability result in data set [8] is “high cell wall permeability”. Further, in data set [9], the “serum lipid profiles or blood pressure” value was “Neither Δ^9-THC nor cotreatment with Δ^9-THC and genistein affected”; the “CD68-positive area in the aortic root (macrophage recruitment)” value is “rescued”; the “plaque size (Oil Red O; aortic root cross-sections and en face thoracic aorta)” value is reported as “ameliorated plaque size”. In addition, at human CB2, the pIC50 was below 4.30 and the pKi is below 4.30. Further, the “monocyte adhesion to hiPSC-ECs” value with hiPSC-ECs [10] was “reversed”. For the same compound, the bioavailability result in data set [11] is reported as “low bioavailability”. Further, the affinity in data set [12] is listed as 133 nM.
Regarding `Cc1c(C(=O)NN2CCCCC2)nn(-c2ccc(Cl)cc2Cl)c1-c1ccc(Cl)cc1` [rimonabant], the “mRNA expressions of inflammation induced by Δ9-THC in mouse thoracic artery tissues” value in the data set with C57BL/6J mice [3] (with Δ9-THC) is recorded as “ameliorated”.
Take `CCCCCc1cc(O)c2c(c1)OC(C)(C)[C@@H]1CCC(C)=C[C@@H]21` [Δ^9-THC, (6aR,10aR)-6,6,9-trimethyl-3-pentyl-6a,7,8,10a-tetrahydro-6H-benzo[c]chromen-1-ol]: the cytotoxicity result in data set [13] was “induced cytotoxicity”. For the same compound, the “analgesia (hot plate 55° C.)” value in the data set with C57BL/6J mice [2] (Δ9-THC 20 mg/kg i.p.) is reported as “analgesia”. In the data set on C57BL/6J mice [2] (setting [16]), the “hypothermia (rectal body temperature)” value is “hypothermia”, the “mobility (open field activity chamber)” value is listed as “decreased mobility” and the “sedation (bar test)” value was “sedation”. In addition, in the data set with C57BL/6J mice [3], the “endothelial function (wire myograph, thoracic aorta)” value was “induced endothelial dysfunction”; the “circulating levels of glutathione” value is reported as “decreased”; the “plasma interleukins IL-6, IL-3 and IL-10” value is on record as “elevated”. Besides, in the data set on C57BL/6J mice [3] (intraperitoneal injection, LC-MS), the “plasma concentration of Δ9-THC” value was around 100 ng/mL. Besides, in the data set with human endothelial cells, the antioxidant-related gene expression result was “reduced” and the “expression of inflammation-related genes” value is “induced”. Moreover, in the data set on hiPSC-ECs [14], the cytotoxicity entry was “induced cytotoxicity”. Besides, in the data set with ApoE^−/− mice, the “plaque area (Oil Red O), ligated carotid artery” value is listed as “increased”; the CD68-positive area entry is recorded as “significantly increased”; the “F4/80-positive area, ligated carotid artery” value is recorded as “significantly increased”. In the data set with hiPSC-ECs [1], the “I kappa B (IκB)” value is on record as “inhibited”; the “TNFα concentration in the cell culture medium” value is “increased”; the TLR4 expression result is listed as “induced”; the “expression of ROS-related genes NOX1 and iNOS” value is reported as “upregulated”. Besides, in the data set with hiPSC-ECs [1], the “mRNA expression of antioxidant-related genes (SOD1, SOD2, CAT, GPX1)” value is listed as “decreased”; the “expression of proinflammatory cytokines and chemokines / inflammation-related genes” value is given as “increased”. For the same compound, the “hydrogen peroxide (H2O2) levels” value with hiPSC-ECs [1] (immunofluorescence staining) was “increased”. Besides, in the data set on hiPSC-ECs [1] (Δ9-THC 48 hours, then wash-out, no genistein), the “duration of Δ9-THC-induced expression of proinflammatory cytokines and chemokines after the initial exposure” value was in the range of 8 to 10 days. Besides, in [9], the “serum lipid profiles or blood pressure” value was “Neither Δ^9-THC nor cotreatment with Δ^9-THC and genistein affected”; the “CD68-positive area in the aortic root (macrophage recruitment)” value is on record as “significantly increased”; the “plaque size (Oil Red O; aortic root cross-sections and en face thoracic aorta)” value is “significantly increased plaque size”. Moreover, in the data set on hiPSC-ECs [10], the “monocyte adhesion to hiPSC-ECs” value is “increased adhesion”. Moreover, in data set [15], the cytotoxicity entry was “without any adverse effect”.
